Measured values taken from paper PMC3389199 (Bioorganic & medicinal chemistry letters, 2012).
Marks after values point to notes of the source that are not given here.

How the values were obtained:
[1] = test system: Lipoprotein Lipase (Bacterial); assay: In vitro FRET-based lipoprotein lipase assay with reporter compound 17; type: biochemical, Pseudomonas sp.
[2] = biological target: T1, Pancreatic Lipase (Porcine) (Sus scrofa, UniProt P00591); assay: In vitro FRET-based pancreatic lipase assay with reporter compound 17; type: biochemical; conditions: preliminary studies, substrate 17
T1 sequence (P00591 1-450): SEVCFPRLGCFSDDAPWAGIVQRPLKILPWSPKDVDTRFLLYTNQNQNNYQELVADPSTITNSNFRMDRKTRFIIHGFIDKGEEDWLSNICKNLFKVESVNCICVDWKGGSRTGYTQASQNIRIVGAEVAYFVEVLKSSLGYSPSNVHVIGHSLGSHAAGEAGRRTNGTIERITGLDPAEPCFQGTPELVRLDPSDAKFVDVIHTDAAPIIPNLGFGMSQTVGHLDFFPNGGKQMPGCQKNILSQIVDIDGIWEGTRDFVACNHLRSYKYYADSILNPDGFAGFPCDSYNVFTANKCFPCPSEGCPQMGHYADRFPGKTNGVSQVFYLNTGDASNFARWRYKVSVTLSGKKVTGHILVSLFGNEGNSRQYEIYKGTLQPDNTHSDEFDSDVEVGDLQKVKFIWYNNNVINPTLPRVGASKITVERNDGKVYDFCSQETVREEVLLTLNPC

hDAGLα [3] = biological target: T2, hDAGLα (Homo sapiens, UniProt Q9Y4D2); assay: Radio-TLC assay of hDAGLα inhibition with [14C]SAG substrate; type: biochemical; conditions: for inhibition of hDAGLα activity at 10 μM (in words): radiolabeled substrate [14C]SAG
T2 sequence (Q9Y4D2 1-1042): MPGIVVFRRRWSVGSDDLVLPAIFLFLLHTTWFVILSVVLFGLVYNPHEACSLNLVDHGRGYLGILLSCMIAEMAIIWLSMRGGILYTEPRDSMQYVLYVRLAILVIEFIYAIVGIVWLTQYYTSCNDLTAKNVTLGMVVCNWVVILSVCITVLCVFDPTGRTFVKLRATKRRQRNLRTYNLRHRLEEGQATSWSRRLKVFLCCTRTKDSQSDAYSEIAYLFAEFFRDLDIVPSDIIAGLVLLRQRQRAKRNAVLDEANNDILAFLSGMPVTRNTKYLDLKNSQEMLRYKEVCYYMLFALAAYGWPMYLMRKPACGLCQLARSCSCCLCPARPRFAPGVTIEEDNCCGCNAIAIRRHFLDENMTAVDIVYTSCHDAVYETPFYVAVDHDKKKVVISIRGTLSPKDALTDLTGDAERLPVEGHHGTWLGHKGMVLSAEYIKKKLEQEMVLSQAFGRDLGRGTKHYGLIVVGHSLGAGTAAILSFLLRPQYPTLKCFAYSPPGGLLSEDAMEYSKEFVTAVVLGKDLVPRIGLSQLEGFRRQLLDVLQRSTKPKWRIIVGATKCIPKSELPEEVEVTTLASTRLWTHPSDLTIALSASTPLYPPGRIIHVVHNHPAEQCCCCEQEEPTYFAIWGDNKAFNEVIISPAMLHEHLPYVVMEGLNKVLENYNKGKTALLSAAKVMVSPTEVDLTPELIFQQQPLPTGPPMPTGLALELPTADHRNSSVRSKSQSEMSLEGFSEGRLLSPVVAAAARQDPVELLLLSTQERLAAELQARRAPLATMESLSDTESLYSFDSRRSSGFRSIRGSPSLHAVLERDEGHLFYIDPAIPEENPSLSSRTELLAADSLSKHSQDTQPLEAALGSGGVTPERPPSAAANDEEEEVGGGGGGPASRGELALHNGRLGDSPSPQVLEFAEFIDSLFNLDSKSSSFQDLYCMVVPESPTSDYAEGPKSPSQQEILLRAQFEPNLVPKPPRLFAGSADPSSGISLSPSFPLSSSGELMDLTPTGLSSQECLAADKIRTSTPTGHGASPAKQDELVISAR

cannabinoid receptors = conditions: cited from earlier work
hDAGLα [4] = biological target: T2, hDAGLα; conditions: cited from earlier work
FAAH = conditions: cited from earlier work
[5] = biological target: CB1 (rat brain preparation) (Rattus norvegicus, UniProt P20272); assay: Cannabinoid receptor competition binding, CB1
hDAGLα [6] = biological target: T2, hDAGLα; assay: In vitro FRET-based DAGL assay with reporter compound 17; type: biochemical
mDAGLβ = biological target: T3, mDAGLβ (Mus musculus, UniProt Q91WC9); assay: Radio-TLC assay of mDAGLβ inhibition with [14C]SAG substrate; type: biochemical, murine
T3 sequence (Q91WC9 1-669): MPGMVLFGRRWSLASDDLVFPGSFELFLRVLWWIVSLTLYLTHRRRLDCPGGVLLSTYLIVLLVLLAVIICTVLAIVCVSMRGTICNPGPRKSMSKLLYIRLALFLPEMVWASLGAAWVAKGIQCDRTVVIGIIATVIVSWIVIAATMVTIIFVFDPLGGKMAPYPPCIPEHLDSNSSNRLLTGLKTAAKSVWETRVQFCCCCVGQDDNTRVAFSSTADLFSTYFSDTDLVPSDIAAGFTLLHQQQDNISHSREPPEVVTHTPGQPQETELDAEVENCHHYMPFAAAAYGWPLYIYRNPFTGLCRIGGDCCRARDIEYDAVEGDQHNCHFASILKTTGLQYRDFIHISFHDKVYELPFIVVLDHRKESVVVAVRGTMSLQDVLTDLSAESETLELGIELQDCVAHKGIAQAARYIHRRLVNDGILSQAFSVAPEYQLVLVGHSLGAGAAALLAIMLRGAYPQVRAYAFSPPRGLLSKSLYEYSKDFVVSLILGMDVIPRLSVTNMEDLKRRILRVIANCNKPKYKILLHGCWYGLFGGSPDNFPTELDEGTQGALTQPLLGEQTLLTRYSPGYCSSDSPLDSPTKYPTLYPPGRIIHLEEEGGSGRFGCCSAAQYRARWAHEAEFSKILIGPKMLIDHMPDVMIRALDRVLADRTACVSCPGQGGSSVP

Sequence of CB1 (rat brain preparation) (P20272 whole entry): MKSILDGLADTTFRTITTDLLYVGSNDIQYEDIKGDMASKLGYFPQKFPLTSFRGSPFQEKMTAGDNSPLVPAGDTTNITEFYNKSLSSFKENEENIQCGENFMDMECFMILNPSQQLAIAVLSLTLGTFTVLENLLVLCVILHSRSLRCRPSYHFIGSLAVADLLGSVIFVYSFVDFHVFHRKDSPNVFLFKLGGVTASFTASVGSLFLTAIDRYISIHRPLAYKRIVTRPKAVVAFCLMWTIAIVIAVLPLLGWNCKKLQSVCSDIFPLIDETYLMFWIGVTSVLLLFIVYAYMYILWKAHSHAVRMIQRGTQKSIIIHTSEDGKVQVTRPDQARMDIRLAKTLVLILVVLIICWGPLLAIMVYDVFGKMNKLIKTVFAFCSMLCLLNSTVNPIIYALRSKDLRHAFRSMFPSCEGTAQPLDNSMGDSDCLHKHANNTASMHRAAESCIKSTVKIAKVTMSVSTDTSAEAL

Row | Compound | inhibition of hDAGLα activity at 10 μM (in words) (hDAGLα [3]) | binding to the cannabinoid receptors, previous reports (in words) (cannabinoid receptors) | inhibition of hDAGLα in radio-TLC assays (in words) (hDAGLα [3]) | reported inhibition of DAGL activity (in words) (hDAGLα [4]) | reported inhibition of FAAH activity (in words) (FAAH) | binding to the cannabinoid receptors (in words), CB1 [5] | also measured
1 | CCCCCCCCCCC[C@@H](C[C@@H]1OC(=O)[C@H]1CCCCCC)OC(=O)[C@H](CC(C)C)NC=O [3 (THL), tetrahydrolipstatin] | complete inhibition | – | – | – | – | – | inhibition of bacterial lipoprotein lipase (in words) [1]: potent inhibition; IC50 ([1]; read-out: apparent IC50 with lipoprotein lipase in FRET assay): ~100 nM; inhibition of porcine triacylglycerol lipase (in words) [2]: potent inhibition
2 | O=C(Oc1ccc([N+](=O)[O-])cc1)N1CCC(C(O)(c2ccc3c(c2)OCO3)c2ccc3c(c2)OCO3)CC1 [JZL184] | – | did not bind | poor inhibitors | poor inhibitors | poor inhibitors | – | –
3 | O=S(=O)(F)Cc1ccccc1 [PMSF, phenylmethylsulfonylfluoride] | – | – | poor inhibitors | poor inhibitors | poor inhibitors | – | effect on / reaction with DAGL (in words) (hDAGLα [4]): not affected
4 | O=C(NCCCCCCNC(=O)ON=C1CCCCC1)ON=C1CCCCC1 [RHC80267 (1), RHC80267] | – | – | poor inhibitors | poor inhibitors | poor inhibitors | did not bind | hDAGLα inhibition at 10 μM detergent free (%) (hDAGLα [6]): 40 ^* %
5 | O=C(N[C@H]1COC1=O)OCc1ccccc1 [SD41] | did not inhibit | – | – | – | – | did not bind | inhibition of mDAGLβ at 10 μM screening concentration (in words) (mDAGLβ): did not inhibit
6 | NC(=O)c1cccc(-c2cccc(OC(=O)NC3CCCCC3)c2)c1 [URB597] | – | did not bind | – | – | – | – | –
